From patent publication US20060252807A1, “Novel ortho-terphenyl inhibitors of p38 kinase and methods of treating inflammatory disorders” (Kalypsys, Inc., priority 2005, published 2006) come the findings set out here.

In general, IC50 refers to the concentration that gives 50% inhibition. Read a high IC50 as a need for much substance.

The target in this assay is T1, active p38 alpha enzyme (Upstate Biotechnology) (Homo sapiens, UniProt Q16539).
T1 construct: purchased Upstate Biotechnology
The experiment in a line: p38α biochemical assay (ATP turnover, luminescent detection, Cambrex PKlight). The following applies: Table 1 Biological Activity. The method, boiled down: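 Luminescent PKlight readout of total ATP consumption follows a 2 h, 30C kinase reaction. Enzyme and MapkapK2 substrate run with 1.4 uM ATP (final) in buffer containing Mg2+, Ca2+, chelators, glycerol, reducing agent and BSA; test compounds added by pintool from DMSO.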

T1 sequence (Q16539 whole entry): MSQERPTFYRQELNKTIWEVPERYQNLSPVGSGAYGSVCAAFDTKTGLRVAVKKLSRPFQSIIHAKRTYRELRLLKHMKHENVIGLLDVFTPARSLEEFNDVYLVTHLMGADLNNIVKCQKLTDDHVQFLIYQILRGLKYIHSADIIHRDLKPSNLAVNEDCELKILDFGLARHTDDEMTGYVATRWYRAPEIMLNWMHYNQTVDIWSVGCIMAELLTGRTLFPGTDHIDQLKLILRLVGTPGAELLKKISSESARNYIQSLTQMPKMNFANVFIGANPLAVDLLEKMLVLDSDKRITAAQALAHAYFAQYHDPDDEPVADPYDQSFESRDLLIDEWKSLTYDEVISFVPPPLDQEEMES

Take `CC(C)NC(=O)c1csc(-c2c(-c3ccc(F)cc3)noc2CNC(=O)c2c3ccccc3cc3ccccc23)n1` [Example 778]: the IC50 (p38α biochemical assay) is more than 1000 nM.
Still for that read-out and setting: then `CC(C)NC(=O)c1csc(-c2c(-c3ccc(F)cc3)noc2CNC(=O)c2cc(C(C)C)cc(C(C)C)c2O)n1` [Example 779], with more than 1000 nM; and `CC(=O)NC(Cc1ccc(O)cc1)C(=O)NCc1onc(-c2ccc(F)cc2)c1-c1nc(C(=O)NC(C)C)cs1` (stereo not drawn) [Example 780], with more than 1000 nM.
On the same count and under the same terms, as for `CC(C)NC(=O)c1csc(-c2c(-c3ccc(F)cc3)noc2CNC(=O)c2c(Cl)cc(Cl)cc2Cl)n1` [Example 781], the figure is more than 1000 nM; as for `COc1cc(C(=O)NCc2onc(-c3ccc(F)cc3)c2-c2nc(C(=O)NC(C)C)cs2)c([N+](=O)[O-])cc1OC` [Example 782], more than 1000 nM; as for `CC(C)NC(=O)c1csc(-c2c(-c3ccc(F)cc3)noc2CNC(=O)c2ccc(OCc3ccccc3)cc2)n1` [Example 783], more than 1000 nM.
Still for that read-out and setting: as for `CC(C)NC(=O)c1csc(-c2c(-c3ccc(F)cc3)noc2CNC(=O)CCc2ccccc2Br)n1` [Example 784], the figure is more than 1000 nM; as for `CC(C)NC(=O)c1csc(-c2c(-c3ccc(F)cc3)noc2CNC(=O)CCc2cccc(Br)c2)n1` [Example 785], more than 1000 nM; as for `CC(C)NC(=O)c1csc(-c2c(-c3ccc(F)cc3)noc2CNC(=O)C2CCCCN2C(=O)OC(C)(C)C)n1` (stereo not drawn) [Example 786], more than 1000 nM.
For `CC(C)NC(=O)c1csc(-c2c(-c3ccc(F)cc3)noc2CNC(=O)c2ccc(Oc3cccc(O)c3)cc2)n1` [Example 787], the IC50 (p38α biochemical assay) was more than 1000 nM.
In turn, `COc1ccc2cc(C(C)C(=O)NCc3onc(-c4ccc(F)cc4)c3-c3nc(C(=O)NC(C)C)cs3)ccc2c1` (stereo not drawn) [Example 788] gave an IC50 (p38α biochemical assay) of more than 1000 nM.
On the same count and under the same terms, as for `CC(C)NC(=O)c1csc(-c2c(-c3ccc(F)cc3)noc2CNC(=O)C2CN(C(=O)OC(C)(C)C)CCN2)n1` (stereo not drawn) [Example 789], the figure is more than 1000 nM.
The same measure, in the same setting: then `CC(C)NC(=O)c1csc(-c2c(-c3ccc(F)cc3)noc2CNC(=O)C2CN(C(=O)OC(C)(C)C)CCN2)n1` (stereo not drawn) [Example 790], with more than 1000 nM; and `COc1ccc(Br)c(C(=O)NCc2onc(-c3ccc(F)cc3)c2-c2nc(C(=O)NC(C)C)cs2)c1` [Example 791], with more than 1000 nM.
The same measure, in the same setting: then `CC(C)NC(=O)c1csc(-c2c(-c3ccc(F)cc3)noc2CNC(=O)C2CC(O)CN2C(=O)OC(C)(C)C)n1` (stereo not drawn) [Example 792], with more than 1000 nM; and `CC(C)NC(=O)c1csc(-c2c(-c3ccc(F)cc3)noc2CNC(=O)C(C(C)C)N(C)C(=O)OC(C)(C)C)n1` (stereo not drawn) [Example 793], with more than 1000 nM; and `CC(C)NC(=O)c1csc(-c2c(-c3ccc(F)cc3)noc2CNC(=O)c2ccc(C(F)(F)F)cc2[N+](=O)[O-])n1` [Example 794], with more than 1000 nM.
As for `CC(C)NC(=O)c1csc(-c2c(-c3ccc(F)cc3)noc2CNC(=O)c2cc(Br)ccc2Cl)n1` [Example 795], the IC50 (p38α biochemical assay) was more than 1000 nM.
On to `CC(C)NC(=O)c1csc(-c2c(-c3ccc(F)cc3)noc2CNC(=O)c2ccc(Cl)c(Br)c2)n1` [Example 796], for which the IC50 (p38α biochemical assay) was more than 1000 nM.
Where the note is “p38α kinase”, `CC(C)NC(=O)c1csc(-c2c(-c3ccc(F)cc3)noc2CNC(=O)c2ccccc2C(=O)c2ccc(O)cc2)n1` [Example 797] showed an IC50 of more than 1000 nM.
`CC(C)NC(=O)c1csc(-c2c(-c3ccc(F)cc3)noc2CNC(=O)c2ccccc2C(=O)c2ccc(F)cc2)n1` [Example 798] displayed an IC50 (p38α kinase) of more than 1000 nM.
Under “p38α kinase”, `CC(C)NC(=O)c1csc(-c2c(-c3ccc(F)cc3)noc2CNC(=O)C(C)c2ccc(-c3ccccc3)c(F)c2)n1` (stereo not drawn) [Example 799] yielded an IC50 of more than 1000 nM.
Turning to `CC(C)NC(=O)c1csc(-c2c(-c3ccc(F)cc3)noc2CNC(=O)c2cccc(I)c2)n1` [Example 801], for the setting “p38α kinase”, the IC50 was more than 1000 nM.
Still for that read-out and setting: as for `CC(C)NC(=O)c1csc(-c2c(-c3ccc(F)cc3)noc2CNC(=O)C2CCCN2C(=O)OCc2ccccc2)n1` (stereo not drawn) [Example 802], the figure is more than 1000 nM; as for `CCC(C)C(NC(=O)OC(C)(C)C)C(=O)NCc1onc(-c2ccc(F)cc2)c1-c1nc(C(=O)NC(C)C)cs1` (stereo not drawn) [Example 803], more than 1000 nM; as for `CC(C)CC(NC(=O)OC(C)(C)C)C(=O)NCc1onc(-c2ccc(F)cc2)c1-c1nc(C(=O)NC(C)C)cs1` (stereo not drawn) [Example 804], more than 1000 nM.
Turning to `CC(C)NC(=O)c1csc(-c2c(-c3ccc(F)cc3)noc2CNC(=O)C(C)c2cccc(C(=O)c3ccccc3)c2)n1` (stereo not drawn) [Example 805], under “p38α kinase”, the IC50 was more than 1000 nM.
`CC(C)NC(=O)c1csc(-c2c(-c3ccc(F)cc3)noc2CNC(=O)C(Cc2ccccc2)NC(=O)OC(C)(C)C)n1` (stereo not drawn) [Example 806] had an IC50 (p38α kinase) of more than 1000 nM.
`CC(C)NC(=O)c1csc(-c2c(-c3ccc(F)cc3)noc2CNC(=O)C(Cc2ccccn2)NC(=O)OC(C)(C)C)n1` (stereo not drawn) [Example 807] yielded an IC50 (p38α kinase) of more than 1000 nM.
The same measure, in the same setting: as for `CC(C)NC(=O)c1csc(-c2c(-c3ccc(F)cc3)noc2CNC(=O)C2Cc3ccccc3CN2C(=O)OC(C)(C)C)n1` (stereo not drawn) [Example 808], the figure is more than 1000 nM; as for `CC(C)NC(=O)c1csc(-c2c(-c3ccc(F)cc3)noc2CNC(=O)C(Cc2ccc(O)cc2)NC(=O)OC(C)(C)C)n1` (stereo not drawn) [Example 809], more than 1000 nM.
Still for that read-out and setting: as for `CC(C)NC(=O)c1csc(-c2c(-c3ccc(F)cc3)noc2CN)n1` [Example 810], the figure is not above 1000 nM; as for `CC(C)NC(=O)c1csc(-c2c(-c3ccc(F)cc3)n[nH]c2C2CCN(C(=O)C=O)CC2)n1` [Example 813], not above 1000 nM; as for `CC(C)NC(=O)c1csc(-c2c(-c3ccc(F)cc3)n[nH]c2C2CCN(C(=O)CC#N)CC2)n1` [Example 814], not above 1000 nM.
For the setting “p38α kinase”, `CC(C)NC(=O)c1csc(-c2c(-c3ccc(F)cc3)n[nH]c2C2CCN(C(=O)C(C)O)CC2)n1` (stereo not drawn) [Example 815] came in with an IC50 not above 1000 nM.
Same read-out and setting: as for `CCC(=O)C(=O)N1CCC(c2[nH]nc(-c3ccc(F)cc3)c2-c2nc(C(=O)NC(C)C)cs2)CC1` [Example 816], the figure is more than 1000 nM.
On the same count and under the same terms, as for `CC(C)NC(=O)c1csc(-c2c(-c3ccc(F)cc3)n[nH]c2C2CCN(C(=O)C(C)(C)C)CC2)n1` [Example 817], the figure is not above 1000 nM; as for `CC(C)CC(=O)N1CCC(c2[nH]nc(-c3ccc(F)cc3)c2-c2nc(C(=O)NC(C)C)cs2)CC1` [Example 818], more than 1000 nM; as for `CC(C)NC(=O)c1csc(-c2c(-c3ccc(F)cc3)n[nH]c2C2CCN(C(=O)c3cnc[nH]3)CC2)n1` [Example 819], more than 1000 nM.
On the same count and under the same terms, as for `CC(C)NC(=O)c1csc(-c2c(-c3ccc(F)cc3)n[nH]c2C2CCN(C(=O)C3=CCCC3)CC2)n1` [Example 821], the figure is more than 1000 nM; as for `CC(C)NC(=O)c1csc(-c2c(-c3ccc(F)cc3)n[nH]c2C2CCN(C(=O)C3CCCO3)CC2)n1` (stereo not drawn) [Example 823], not above 1000 nM.
Under “p38α kinase”, `CC(C)NC(=O)c1csc(-c2c(-c3ccc(F)cc3)n[nH]c2C2CCN(C(=O)c3ccccc3)CC2)n1` [Example 825] yielded an IC50 not above 1000 nM.
The same measure, in the same setting: as for `CC(C)NC(=O)c1csc(-c2c(-c3ccc(F)cc3)n[nH]c2C2CCN(C(=O)C(O)CCl)CC2)n1` (stereo not drawn) [Example 829], the figure is not above 1000 nM; as for `Cc1cc(C(=O)N2CCC(c3[nH]nc(-c4ccc(F)cc4)c3-c3nc(C(=O)NC(C)C)cs3)CC2)n[nH]1` [Example 830], more than 1000 nM; as for `CC(C)NC(=O)c1csc(-c2c(-c3ccc(F)cc3)n[nH]c2C2CCN(C(=O)c3cn(C)cn3)CC2)n1` [Example 831], more than 1000 nM.
